PubChem BioAssay AID330 (DTP/NCI, 2004)
Where “and” joins values, the source holds several entries; their conditions need not be identical. Equal values may be shown once. Inconclusive results and toxic doses are left out.

Test system: P388 leukemia ip, CD2F1 mice, survival T/C
Assay: NCI In Vivo Anticancer Drug Screen. Data for tumor model P388 Leukemia (intraperitoneal) in CD2F1 (CDF1) mice
Details: endpoint: median survival time, higher = longer survival
Outline: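 Mice carrying the transplanted tumor received test compound or vehicle. Survival was recorded in each group, and the value is the treated-group measurement divided by that of the vehicle-treated control group.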

[1] = dose: 60.0 mg/kg/injection, schedule: Q01DX005 (ip), vehicle: saline with Tween-80
[2] = dose: 120.0 mg/kg/injection, schedule: Q01DX005 (ip), vehicle: saline with Tween-80
[3] = dose: 25.0 mg/kg/injection, schedule: Q01DX009 (ip), vehicle: saline
[4] = dose: 50.0 mg/kg/injection, schedule: Q01DX009 (ip), vehicle: saline with Tween-80
[5] = dose: 50.0 mg/kg/injection, schedule: Q01DX009 (ip), vehicle: saline
[6] = dose: 25.0 mg/kg/injection, schedule: Q01DX005 (ip), vehicle: Klucel (hydroxypropylcellulose) (HPC)
[7] = dose: 50.0 mg/kg/injection, schedule: Q01DX005 (ip), vehicle: Klucel (hydroxypropylcellulose) (HPC)
[8] = dose: 100.0 mg/kg/injection, schedule: Q01DX005 (ip), vehicle: Klucel (hydroxypropylcellulose) (HPC)
[9] = dose: 100.0 mg/kg/injection, schedule: Q01DX009 (ip), vehicle: saline
[10] = dose: 200.0 mg/kg/injection, schedule: Q01DX005 (ip), vehicle: Klucel (hydroxypropylcellulose) (HPC)
[11] = dose: 100.0 mg/kg/injection, schedule: Q01DX009 (ip), vehicle: saline with Tween-80
[12] = dose: 200.0 mg/kg/injection, schedule: Q01DX009 (ip), vehicle: saline with Tween-80

Structure (SMILES): COC(=O)[C@]12CCC(C)(C)C[C@H]1C1=CC[C@@H]3[C@@]4(C)C[C@H](O)[C@H](OC5OC(CO)C(O)C(O)C5O)C(CO)(CO)[C@@H]4CC[C@@]3(C)[C@]1(C)C[C@H]2O (stereo not given in full)
- T/C (dose: 2.5 mg/kg/injection, schedule: Q01DX005 (ip), vehicle: Klucel (hydroxypropylcellulose) (HPC)): 94 % of control
- T/C (dose: 5.0 mg/kg/injection, schedule: Q01DX005 (ip), vehicle: Klucel (hydroxypropylcellulose) (HPC)): 95 % of control
- T/C (dose: 10.0 mg/kg/injection, schedule: Q01DX005 (ip), vehicle: Klucel (hydroxypropylcellulose) (HPC)): 100 % of control
- T/C (dose: 20.0 mg/kg/injection, schedule: Q01DX005 (ip), vehicle: Klucel (hydroxypropylcellulose) (HPC)): 101 % of control

Structure (SMILES): COC(=O)c1nc(N)nc(C(=O)OC)c1C(=O)C(C)C
- T/C [1]: 97 % of control
- T/C [2]: 98 % of control

Structure (SMILES): CCOc1c(N=Nc2ccccc2OC)c(C)nn1C(N)=S
- T/C (dose: 3.75 mg/kg/injection, schedule: Q01DX005 (ip), vehicle: Klucel + Tween-80): 100 % of control
- T/C (dose: 7.5 mg/kg/injection, schedule: Q01DX005 (ip), vehicle: Klucel + Tween-80): 94 % of control
- T/C (dose: 15.0 mg/kg/injection, schedule: Q01DX005 (ip), vehicle: Klucel + Tween-80): 99 % of control and 105 % of control

Structure (SMILES): N#CC1OC1c1cccc[n+]1[O-] (stereo not given)
- T/C (dose: 6.25 mg/kg/injection, schedule: Q01DX005 (ip), vehicle: saline with Tween-80): 98 % of control
- T/C (dose: 6.25 mg/kg/injection, schedule: Q01DX005 (ip), vehicle: saline): 104 % of control
- T/C (dose: 12.5 mg/kg/injection, schedule: Q01DX005 (ip), vehicle: saline with Tween-80): 98 % of control
- T/C (dose: 12.5 mg/kg/injection, schedule: Q01DX005 (ip), vehicle: saline): 96 % of control
- T/C (dose: 25.0 mg/kg/injection, schedule: Q01DX005 (ip), vehicle: saline): 102 % of control

Structure (SMILES): NC(=S)N/N=C\c1nccc2c(N)cccc12
- T/C (dose: 3.13 mg/kg/injection, schedule: Q01DX009 (ip), vehicle: saline): 161 % of control
- T/C (dose: 6.25 mg/kg/injection, schedule: Q01DX009 (ip), vehicle: saline with Tween-80): 153 % of control
- T/C (dose: 6.25 mg/kg/injection, schedule: Q01DX009 (ip), vehicle: saline): 161 % of control
- T/C (dose: 12.5 mg/kg/injection, schedule: Q01DX009 (ip), vehicle: saline with Tween-80): 162 % of control
- T/C (dose: 12.5 mg/kg/injection, schedule: Q01DX009 (ip), vehicle: saline): 150 % of control and 166 % of control
- T/C (dose: 18.8 mg/kg/injection, schedule: Q04DX003 (ip), vehicle: saline): 155 % of control
- T/C [3]: 167 % of control
- T/C [4]: 152 % of control and 155 % of control
- T/C [5]: 168 % of control and 181 % of control
- T/C (dose: 75.0 mg/kg/injection, schedule: Q01DX009 (ip), vehicle: saline with Tween-80): 150 % of control
- T/C (dose: 75.0 mg/kg/injection, schedule: Q04DX003 (ip), vehicle: saline): 155 % of control
- T/C (dose: 150.0 mg/kg/injection, schedule: Q04DX003 (ip), vehicle: saline): 172 % of control

Structure (SMILES): CCCCc1ccc(Nc2c(C(=O)O)cnc3cc4c(cc23)OCO4)cc1
- T/C (dose: 60.0 mg/kg/injection, schedule: Q01DX005 (ip), vehicle: Klucel + Tween-80): 103 % of control
- T/C (dose: 120.0 mg/kg/injection, schedule: Q01DX005 (ip), vehicle: Klucel + Tween-80): 100 % of control
- T/C (dose: 240.0 mg/kg/injection, schedule: Q01DX005 (ip), vehicle: Klucel + Tween-80): 97 % of control

Structure (SMILES): CCC(c1ccc(O)cc1)C(CC)c1ccc(OCCN)cc1 (stereo not given)
- T/C (dose: 30.0 mg/kg/injection, schedule: Q01DX005 (ip), vehicle: saline with Tween-80): 111 % of control
- T/C [1]: 103 % of control and 121 % of control
- T/C [2]: 100 % of control

Structure (SMILES): [N-]=[N+]=CC(=O)NC(Cc1ccccc1)C(=O)NN (stereo not given)
- T/C [6]: 107 % of control
- T/C [7]: 98 % of control
- T/C [8]: 110 % of control

Structure (SMILES): Nc1ccc2cc(S(=O)(=O)O)cc(O)c2c1N=Nc1ccc(F)cc1
- T/C [3]: 93 % of control
- T/C [5]: 93 % of control
- T/C [9]: 88 % of control and 91 % of control

Structure (SMILES): Cc1cc(C)nc(NS(=O)(=O)c2ccc(NC(=O)NCCCl)cc2)n1
- T/C (dose: 30.0 mg/kg/injection, schedule: Q01DX005 (ip), vehicle: Klucel (hydroxypropylcellulose) (HPC)): 106 % of control
- T/C (dose: 60.0 mg/kg/injection, schedule: Q01DX005 (ip), vehicle: Klucel (hydroxypropylcellulose) (HPC)): 107 % of control
- T/C (dose: 120.0 mg/kg/injection, schedule: Q01DX005 (ip), vehicle: Klucel (hydroxypropylcellulose) (HPC)): 100 % of control
- T/C (dose: 240.0 mg/kg/injection, schedule: Q01DX005 (ip), vehicle: Klucel (hydroxypropylcellulose) (HPC)): 114 % of control

Structure (SMILES): CC1(C)CC(N2CCN(CCO)CC2)=CC(=S)N1
- T/C [7]: 103 % of control
- T/C [8]: 93 % of control
- T/C [10]: 104 % of control

Structure (SMILES): CN(C)CCNc1ccc(NCCNCCO)c2c1C(=O)c1ccccc1C2=O
- T/C (dose: 10.0 mg/kg/injection, schedule: Q04DX002 (ip), vehicle: saline): 151 % of control
- T/C (dose: 20.0 mg/kg/injection, schedule: Q04DX002 (ip), vehicle: saline): 173 % of control
- T/C (dose: 40.0 mg/kg/injection, schedule: Q04DX002 (ip), vehicle: saline): 192 % of control
- T/C (dose: 80.0 mg/kg/injection, schedule: Q04DX002 (ip), vehicle: saline): 192 % of control

Structure (SMILES): COc1ccc(Cc2c3cc(OC)c(OC)cc3cc[n+]2CC(=O)c2ccc(F)cc2)cc1OC
- T/C [6]: 108 % of control
- T/C [7]: 100 % of control

Structure (SMILES): CN1CCC(OC(=O)Oc2ccccc2)CC1
- T/C [5]: 105 % of control
- T/C [9]: 92 % of control
- T/C (dose: 200.0 mg/kg/injection, schedule: Q01DX009 (ip), vehicle: saline): 102 % of control

Structure (SMILES): CCOC(=O)c1ccc(NC(=O)Nc2nc3cc(C)c(C)cc3s2)cc1
- T/C [4]: 99 % of control
- T/C [11]: 95 % of control
- T/C [12]: 93 % of control

Structure (SMILES): CCNc1cc2oc(=O)cc(C(F)(F)F)c2cc1C
- T/C [7]: 97 % of control
- T/C [8]: 100 % of control
- T/C [10]: 99 % of control

Structure (SMILES): O=C1c2c(O)cc(O)cc2OC(c2ccc(O)cc2O)C1O (stereo not given)
- T/C (dose: 30.3 mg/kg/injection, schedule: Q01DX009 (ip), vehicle: saline): 98 % of control
- T/C (dose: 60.7 mg/kg/injection, schedule: Q01DX009 (ip), vehicle: saline): 100 % of control
- T/C (dose: 121.4 mg/kg/injection, schedule: Q01DX009 (ip), vehicle: saline): 103 % of control

Structure (SMILES): COCCOCCOCCOCCOC(=O)CCn1cc(F)c(=O)[nH]c1=O
- T/C (dose: 45.0 mg/kg/injection, schedule: Q04DX002 (ip), vehicle: saline): 99 % of control
- T/C (dose: 90.0 mg/kg/injection, schedule: Q04DX002 (ip), vehicle: saline): 106 % of control
- T/C (dose: 180.0 mg/kg/injection, schedule: Q04DX002 (ip), vehicle: saline): 101 % of control
- T/C (dose: 360.0 mg/kg/injection, schedule: Q04DX002 (ip), vehicle: saline): 108 % of control

Structure (SMILES): CN(C)C(=S)c1cccc2ccccc12
- T/C [4]: 86 % of control
- T/C [11]: 96 % of control
- T/C [12]: 114 % of control

Structure (SMILES): Clc1ccc2ccc3cccnc3c2n1
- T/C (dose: 7.5 mg/kg/injection, schedule: Q01DX005 (ip), vehicle: saline): 102 % of control
- T/C (dose: 15.0 mg/kg/injection, schedule: Q01DX005 (ip), vehicle: saline): 97 % of control
- T/C (dose: 30.0 mg/kg/injection, schedule: Q01DX005 (ip), vehicle: saline): 93 % of control
- T/C (dose: 60.0 mg/kg/injection, schedule: Q01DX005 (ip), vehicle: saline): 102 % of control
- T/C (dose: 120.0 mg/kg/injection, schedule: Q01DX005 (ip), vehicle: saline): 105 % of control

Structure (SMILES): OC1(C(O)(c2ccc(-c3ccccc3)cc2)c2ccc(-c3ccccc3)cc2)CC=CCC1 (stereo not given)
- T/C [1]: 105 % of control
- T/C [2]: 92 % of control
- T/C (dose: 240.0 mg/kg/injection, schedule: Q01DX005 (ip), vehicle: saline with Tween-80): 90 % of control

Structure (SMILES): CC1=CCC2CN(CCN(C)C)CC2C1 (stereo not given)
- T/C (dose: 50.0 mg/kg/injection, schedule: Q01DX005 (ip), vehicle: saline with Tween-80): 100 % of control
- T/C (dose: 100.0 mg/kg/injection, schedule: Q01DX005 (ip), vehicle: saline with Tween-80): 99 % of control
